Data on two molecules can be found in patent US20050014783A1, “Use of Rho-kinase inhibitors in the treatment of aneurysm and cardiac hypertrophy” (Schering Aktiengesellschaft, priority 2003, published 2005).

Assay [1] has as its system supra-renal aortic wall in apoE-KO mice. As to the kind of experiment: Apoptosis in aortic tissue (TUNEL, cell death detection ELISA, H & E staining). Type of assay: in vivo. The note with it: for apoptosis: TUNEL staining, supra-renal aorta, FIG. 2. The protocol:
FIG. 3. To further quantify apoptosis in the aortic tissue, cell death detection ELISA assay was performed.
A general note: An ELISA detects its analyte on a solid surface through an enzyme-linked reagent.

In assay [2] the test system is ApoE-KO mice infused with angiotensin II. As to the kind of experiment: Angiotensin II-induced cardiac hypertrophy in apoE-KO mice. It counts as in vivo.
Assay [3] has the same test system. Briefly: Angiotensin II-induced abdominal aortic aneurysm in apoE-KO mice. It counts as in vivo. The source says:
Infusion of apoE-KO mice (Jackson Laboratories, Bar Harbor, Me.) with angiotensin II has been reported to lead to the formation of large abdominal aortic aneurysms (Daugherty et al. (2000) J. Clin. Invest. 105:1605-1612). This system can be used as a model system in which to study the effects of the Rho-kinase inhibitors of the present invention on these conditions, using the methods described in Wang et al. (2001) American J. Path. 159:1455-1464. (See Example 1).
(§1) For some parameters measured, comparative data was also collected for C57 Black mice, the mouse strain from which the ApoE-KO mouse is derived.

Assay [4] has the same test system. As to the kind of experiment: Blood pressure, heart rate, serum cholesterol, aortic arch lesion area and aortic stiffness in Ang II-infused apoE-KO mice. Type of assay: in vivo.
Source text: as §1

Assay [5] relates to Rho-kinase. The conditions noted are these: cited from earlier work.

Marks after values point to notes of the source that are not given here.

Turning to `O=S(=O)(c1cccc2cnccc12)N1CCCNCC1` [Fasudil, Hexahydro-1-(5-isoquinolylsulfonyl)-1H-1,4-diazepine], the “aortic wall changes (adventitial fibrosis, inflammation, destruction of smooth muscle cells and elastin)” value in assay [1] (H & E staining, high dose fasudil, animals with aneurysm) is “ameliorated, but not fully eliminated”. Moreover, the apoptosis entry in assay [1] is reported as “reducing apoptosis”. In assay [1] (listed as fasudil), the apoptosis result is “decreased apoptosis”. The “cytosolic DNA fragmentation increased by Ang II” value in assay [1] (cell death detection ELISA, aortic tissue, P<0.01, FIG. 3) is recorded as “abolished”. Moreover, the “Heart/body Wt” value in assay [2] (Ang II for 30 days, fasudil in drinking water) is reported as 6.1 ± 0.1. Moreover, the “Myocyte (mm^2)” value in assay [2] (cardiomyocyte size, Ang II for 30 days, fasudil in drinking water) is listed as 262 ± 16# mm^2. For the same molecule, in assay [2] (heart of apoE-KO mice), the “gene expression of ANP and collagen III” value is “normalized”. In addition, in assay [2] (measured by heart weight or cardiomyocyte size), the “angiotensin-II induced cardiac hypertrophy” value is recorded as “significantly reduced”. In addition, in assay [2] (mouse, in vivo), the cardiac function result is on record as “improved” and the perivascular fibrosis entry was “reduced”. In addition, the “decrease in the degree of cardiac hypertrophy” value in assay [2] (versus Ang II treated ApoE-KO mice, FIG. 4, fasudil 0.5 mg/ml and 1 mg/ml) worked out at 14%. Besides, the “Diameter (mm)” value in assay [3] (Ang II for 30 days, fasudil in drinking water, postmortem direct measurement) came to 1.5 ± 0.1 mm. Further, in assay [3] (abdominal aortic aneurysm, Ang II 1.44 mg/kg per day for 30 days, fasudil 1 mg/ml in drinking water), the “Incidence (%)” value is reported as 41# %. The “incidence of abdominal aortic aneurysm formation” value in assay [3] (oral, >100 mg/kg daily in drinking water, n=20, p<0.05 vs. controls) is reported as 35%. Further, in assay [3] (versus Ang II treated ApoE-KO mice, FIG. 1, fasudil 0.5 mg/ml and 1 mg/ml in drinking water), the “decrease in the size of aneurysms” value was determined as 29%. Moreover, the “Lesion (%)” value in assay [4] (aortic arch atherosclerotic lesion area, Ang II for 30 days, fasudil in drinking water) was determined as 25 ± 3%. Moreover, in assay [4] (mouse, in vivo), the “effect on aortic arch atherosclerotic lesion area” value is recorded as “no effect”, the “effect on aortic stiffness” value is “no effect” and the “effect on serum cholesterol” value is “no effect”. Further, in assay [4] (tail cuff instrumentation), the “effect on heart rate” value is “no effect” and the “effect on systolic blood pressure (SBP)” value is “no effect”.

With `O=S(=O)(c1cccc2c(O)nccc12)N1CCCNCC1` [hydroxyfasudil], in assay [5], the “specificity of the inhibitory effect on Rho-kinase” value was “more specific inhibitory effect on Rho-kinase”.
